Values quoted from earlier work as cited in PMC5040077 (The Korean Journal of Parasitology, 2016).

Tests used:
[1] = tested on: Leishmania chagasi promastigotes
[2] = tested on: Trypanosoma cruzi trypomastigotes
[3] = tested on: HL-60; conditions: cancer cell line HL-60
[4] = tested on: SF-295; conditions: cancer cell line SF-295
[5] = tested on: MDA-MB-435; conditions: cancer cell line MDA-MB-435
[6] = tested on: HCT-8; conditions: cancer cell line HCT-8

In the case of `C[C@]12CC[C@H](O)C[C@@]1(O)CC[C@@H]1[C@@H]2CC[C@]2(C)[C@@H](c3ccc(=O)oc3)CC[C@]12O` [compound 1, telocinobufagin], the “biological activity against Leishmania chagasi promastigotes” value [1] is given as “biological activity”, the “activity against Trypanosoma cruzi trypomastigotes” value [2] is given as “only hellebrigenin was active” and the “cytotoxicity against HL-60” value [3] is given as “low cytotoxicity”. The “cytotoxicity against SF-295” value [4] was “low cytotoxicity”, the “cytotoxicity against MDA-MB-435” value [5] was “low cytotoxicity” and the “cytotoxicity against HCT-8” value [6] was “low cytotoxicity”.
For `C[C@]12CC[C@H]3[C@@H](CC[C@]4(O)C[C@@H](O)CC[C@]34C=O)[C@@]1(O)CC[C@@H]2c1ccc(=O)oc1` [hellebrigenin, reference compound], the “biological activity against Leishmania chagasi promastigotes” value [1] is listed as “biological activity” and the “activity against Trypanosoma cruzi trypomastigotes” value [2] is listed as “active”.
